US4882313A, “Carboxamide derivatives of glycopeptides” (SmithKline Beckman Corporation, priority 1987, dated 1989)

How the values were obtained:
[1] = system: Staphylococcus epidermidis; experiment: standard microtiter assay, minimum inhibitory concentration; type: cell-based; parameters: minimum inhibitory concentration of antibiotic, Test Organism 8: unit not given here; conditions: for minimum inhibitory concentration of antibiotic, Test Organism 6: Test Organism 6, strain of Staphylococcus epidermidis; for minimum inhibitory concentration of antibiotic, Test Organism 8: Test Organism 8, strain of Staphylococcus epidermidis; for minimum inhibitory concentration of antibiotic, Test Organism 11: Test Organism 11, strain of Staphylococcus epidermidis; for minimum inhibitory concentration of antibiotic, Test Organism 13: Test Organism 13, strain of Staphylococcus epidermidis; for minimum inhibitory concentration of antibiotic, Test Organism 14: Test Organism 14, strain of Staphylococcus epidermidis
Excerpt: (§1) Representative results of standard microtiter assays are reported in Table 1 which follows, as the minimum inhibitory concentration of antibiotic (mg/ml). In Table 1, test organisms 1-5 were different strains of Staphylococcus aureus; 6, 8, 11, 13 and 14 were different strains of Staphylococcus epidermidis; 7 was a Staphylococcus haemolyticus; 9 and 10 were different strains of Streptococcus faecalis; and 12 was a Staphylococcus saprophyticus.

[2] = system: Staphylococcus aureus; experiment: as above; type: cell-based; conditions: for minimum inhibitory concentration of antibiotic, Test Organism 1: Test Organism 1, strain of Staphylococcus aureus; for minimum inhibitory concentration of antibiotic, Test Organism 2: Test Organism 2, strain of Staphylococcus aureus; for minimum inhibitory concentration of antibiotic, Test Organism 3: Test Organism 3, strain of Staphylococcus aureus; for minimum inhibitory concentration of antibiotic, Test Organism 4: Test Organism 4, strain of Staphylococcus aureus; for minimum inhibitory concentration of antibiotic, Test Organism 5: Test Organism 5, strain of Staphylococcus aureus
Excerpt: as §1

[3] = system: Streptococcus faecalis; experiment: as above; type: cell-based; conditions: for minimum inhibitory concentration of antibiotic, Test Organism 9: Test Organism 9, strain of Streptococcus faecalis; for minimum inhibitory concentration of antibiotic, Test Organism 10: Test Organism 10, strain of Streptococcus faecalis
Excerpt: as §1

[4] = system: Staphylococcus saprophyticus; experiment: as above; type: cell-based; conditions: Test Organism 12, Staphylococcus saprophyticus
Excerpt: as §1

[5] = system: Staphylococcus haemolyticus; experiment: as above; type: cell-based; conditions: Test Organism 7, Staphylococcus haemolyticus
Excerpt: as §1

[6] = pI (analytical data, Table 2); type: physicochemical
Excerpt: Using substantially the procedures of both Examples 1 and 2, the compounds of Examples 3-15 were obtained by using the appropriate glycopeptide and amine starting materials.

Compound	minimum inhibitory concentration of antibiotic, Test Organism 6 [1] [µg/mL]	minimum inhibitory concentration of antibiotic, Test Organism 8 [1]	minimum inhibitory concentration of antibiotic, Test Organism 11 [1] [µg/mL]	minimum inhibitory concentration of antibiotic, Test Organism 13 [1] [µg/mL]	minimum inhibitory concentration of antibiotic, Test Organism 14 [1] [µg/mL]	minimum inhibitory concentration of antibiotic, Test Organism 1 [2] [µg/mL]	minimum inhibitory concentration of antibiotic, Test Organism 2 [2] [µg/mL]	minimum inhibitory concentration of antibiotic, Test Organism 3 [2] [µg/mL]	minimum inhibitory concentration of antibiotic, Test Organism 4 [2] [µg/mL]	minimum inhibitory concentration of antibiotic, Test Organism 5 [2] [µg/mL]	minimum inhibitory concentration of antibiotic, Test Organism 9 [3] [µg/mL]	minimum inhibitory concentration of antibiotic, Test Organism 10 [3] [µg/mL]	minimum inhibitory concentration of antibiotic, Test Organism 12 [4] [µg/mL]	minimum inhibitory concentration of antibiotic, Test Organism 7 [5] [µg/mL]	pI [6]
CCCCCCCCCC(=O)NC1C(Oc2c3cc4cc2Oc2c(Cl)cc(cc2Cl)C(O)C2NC(=O)C(NC(=O)C4NC(=O)C4NC(=O)C(NC(=O)C(NC)c5ccc(O)c(c5)Oc5cc(O)c(Cl)c4c5)C(O)c4ccc(c(Cl)c4)O3)c3ccc(O)c(c3)-c3c(OC4OC(CO)C(O)C(O)C4O)cc(O)cc3C(C(=O)NN)NC2=O)OC(C(=O)NN)C(O)C1O (stereo not drawn) [Compound 2k, Ardacin A dihydrazide]	12500	12.5	12500	3100	3100	3100	3100	1600	6300	3100	400	100	6300	12500	7.0
CNCCNC(=O)C1NC(=O)C2NC(=O)C(NC(=O)C3NC(=O)C4NC(=O)C(NC(=O)C(NC)c5ccc(O)c(c5)Oc5cc(O)c(Cl)c4c5)C(O)c4ccc(c(Cl)c4)Oc4cc3cc(c4O)Oc3c(Cl)cc(cc3Cl)C2O)c2ccc(O)c(c2)-c2c(O)cc(O)cc21 (stereo not drawn) [Compound 2f, Ardacin aglycone-(2-Nmethylaminoethyl amide)]	200	0.1	100	50	100	200	200	100	200	100	100	100	100	200	7.7
CNC1C(=O)NC2C(=O)NC(C(=O)NC3C(=O)NC4C(=O)NC(C(=O)NC(C(=O)NCCCCCCN)c5cc(O)cc(O)c5-c5cc4ccc5O)C(O)c4cc(Cl)c(c(Cl)c4)Oc4cc3cc(c4O)Oc3ccc(cc3Cl)C2O)c2cc(cc(O)c2Cl)Oc2cc1ccc2O (stereo not drawn) [Compound 2h, Ardacin aglycone-(6-aminohexyl amide)]	100	0.1	200	100		100	100	400	100	100	100	100	200	200	7.7
CNC1C(=O)NC2C(=O)NC(C(=O)NC3C(=O)NC4C(=O)NC(C(=O)NC(C(N)=O)c5cc(O)cc(O)c5-c5cc4ccc5O)C(O)c4cc(Cl)c(c(Cl)c4)Oc4cc3cc(c4O)Oc3ccc(cc3Cl)C2O)c2cc(cc(O)c2Cl)Oc2cc1ccc2O (stereo not drawn) [Compound 2c, Ardacin aglycone amide]	400	0.4	400	400	200	200	200	400	400	200	200	400	200	800	7.1
CNC1C(=O)NC2C(=O)NC(C(=O)NC3C(=O)NC4C(=O)NC(C(=O)NC(C(=O)NCCN(C)C)c5cc(O)cc(O)c5-c5cc4ccc5O)C(O)c4cc(Cl)c(c(Cl)c4)Oc4cc3cc(c4O)Oc3ccc(cc3Cl)C2O)c2cc(cc(O)c2Cl)Oc2cc1ccc2O (stereo not drawn) [Compound 2g, Ardacin aglycone-(2-N,Ndimethylaminoethyl amide)]	200	0.2	200	50	50	200	100	200	400	100	100	200	100	200	7.7
CNC1C(=O)NC2C(=O)NC(C(=O)NC3C(=O)NC4C(=O)NC(C(=O)NC(C(N)=O)c5cc(O)cc(OC6OC(CO)C(O)C(O)C6O)c5-c5cc4ccc5O)C(O)c4ccc(c(Cl)c4)Oc4cc3cc(c4OC3OC(C(N)=O)C(O)C(O)C3NC(=O)CCCCCCCCC(C)C)Oc3ccc(cc3)C2O)c2cc(cc(O)c2Cl)Oc2cc1ccc2O (stereo not drawn) [Compound 2q, AAJ-271 C1 diamide]	12500	6.3	12500	3100	3100	800	1600	800	> 1600	1600	200	200	12500	3100	7.3
CNC1C(=O)NC2C(=O)NC(C(=O)NC3C(=O)NC4C(=O)NC(C(=O)NC(C(=O)NCCN)c5cc(O)cc(OC6OC(CO)C(O)C(O)C6O)c5-c5cc4ccc5O)C(O)c4cc(Cl)c(c(Cl)c4)Oc4cc3cc(c4O)Oc3ccc(cc3Cl)C2O)c2cc(cc(O)c2Cl)Oc2cc1ccc2O (stereo not drawn) [Compound 2o, Ardacin mannosylaglycone-(2-aminoethyl amide)]	400	0.8	800	100		400	400	400	400	400	200	200	400	1600	7.8
CCCCCCCCCC(=O)NC1C(Oc2c3cc4cc2Oc2c(Cl)cc(cc2Cl)C(O)C2NC(=O)C(NC(=O)C4NC(=O)C4NC(=O)C(NC(=O)C(NC)c5ccc(O)c(c5)Oc5cc(O)c(Cl)c4c5)C(O)c4ccc(c(Cl)c4)O3)c3ccc(O)c(c3)-c3c(OC4OC(CO)C(O)C(O)C4O)cc(O)cc3C(C(=O)NCCN)NC2=O)OC(C(=O)NCCN)C(O)C1O (stereo not drawn) [Compound 2m, Ardacin A-di-(2-aminoethylamide)]	1600	0.1	800	200		100	100	100	800	400	100	100	400	800	8.4
